# Source: patent publication US12662498B2 (priority 2017, dated 2026)
# Assays:
# [1] = ICH stability study of psilocybin batches (appearance, water content, purity, assay); settings: accelerated conditions
# [2] = Heat cycling slurry maturation of Psilocybin Pattern A in 24 solvents (visual solubility); further: test concentration or dose not given here
structure (smiles),measurement,setting,value
CN(C)CCc1c[nH]c2cccc(OP(=O)(O)O)c12 [Polymorph A],time stable under accelerated stability testing conditions,[1],12 months
same,"Obs. 20° C., 0.4 ml",[2]; 2-Chlorobutane,Susp.
same,"Obs. 20° C., 0.8 ml",[2]; 2-Chlorobutane,Susp.
same,"Obs. 20° C., 1.2 ml",[2]; 2-Chlorobutane,Susp.
same,Obs. 50° C.,"[2]; 2-Chlorobutane, 1.2 ml",Susp.
same,"Obs. 20° C., 0.4 ml",[2]; 4:1 EtOH/water,Susp.
same,"Obs. 20° C., 0.8 ml",[2]; 4:1 EtOH/water,Susp.
same,"Obs. 20° C., 1.2 ml",[2]; 4:1 EtOH/water,Susp.
same,Obs. 50° C.,"[2]; 4:1 EtOH/water, 1.2 ml",Susp.
same,"Obs. 20° C., 0.4 ml",[2]; 4:1 IPA/water,Susp.
same,"Obs. 20° C., 0.8 ml",[2]; 4:1 IPA/water,Susp.
same,"Obs. 20° C., 1.2 ml",[2]; 4:1 IPA/water,Susp.
same,Obs. 50° C.,"[2]; 4:1 IPA/water, 1.2 ml",Susp.
same,"Obs. 20° C., 0.4 ml",[2]; 4:1 THF/water,Susp.
same,"Obs. 20° C., 0.8 ml",[2]; 4:1 THF/water,Susp.
same,"Obs. 20° C., 1.2 ml",[2]; 4:1 THF/water,Susp.
same,Obs. 50° C.,"[2]; 4:1 THF/water, 1.2 ml",Susp.
same,"Obs. 20° C., 0.4 ml",[2]; Anisole,Susp.
same,"Obs. 20° C., 0.8 ml",[2]; Anisole,Susp.
same,"Obs. 20° C., 1.2 ml",[2]; Anisole,Susp.
same,Obs. 50° C.,"[2]; Anisole, 1.2 ml",Susp.
same,"Obs. 20° C., 0.4 ml",[2]; Benzotrifluoride,Susp.
same,"Obs. 20° C., 0.8 ml",[2]; Benzotrifluoride,Susp.
same,"Obs. 20° C., 1.2 ml",[2]; Benzotrifluoride,Susp.
same,Obs. 50° C.,"[2]; Benzotrifluoride, 1.2 ml",Susp.
same,"Obs. 20° C., 0.4 ml",[2]; CHCl3,Susp.
same,"Obs. 20° C., 0.8 ml",[2]; CHCl3,Susp.
same,"Obs. 20° C., 1.2 ml",[2]; CHCl3,Susp.
same,Obs. 50° C.,"[2]; CHCl3, 1.2 ml",Susp.
same,"Obs. 20° C., 0.4 ml",[2]; CPME,Susp.
same,"Obs. 20° C., 0.8 ml",[2]; CPME,Susp.
same,"Obs. 20° C., 1.2 ml",[2]; CPME,Susp.
same,Obs. 50° C.,"[2]; CPME, 1.2 ml",Susp.
same,"Obs. 20° C., 0.4 ml",[2]; Chlorobenzene,Susp.
same,"Obs. 20° C., 0.8 ml",[2]; Chlorobenzene,Susp.
same,"Obs. 20° C., 1.2 ml",[2]; Chlorobenzene,Susp.
same,Obs. 50° C.,"[2]; Chlorobenzene, 1.2 ml",Susp.
same,"Obs. 20° C., 0.4 ml",[2]; Cyclohexane,Susp.
same,"Obs. 20° C., 0.8 ml",[2]; Cyclohexane,Susp.
same,"Obs. 20° C., 1.2 ml",[2]; Cyclohexane,Susp.
same,Obs. 50° C.,"[2]; Cyclohexane, 1.2 ml",Susp.
same,"Obs. 20° C., 0.4 ml",[2]; EtOAc,Susp.
same,"Obs. 20° C., 0.8 ml",[2]; EtOAc,Susp.
same,"Obs. 20° C., 1.2 ml",[2]; EtOAc,Susp.
same,Obs. 50° C.,"[2]; EtOAc, 1.2 ml",Susp.
same,"Obs. 20° C., 0.4 ml",[2]; EtOH,Susp.
same,"Obs. 20° C., 0.8 ml",[2]; EtOH,Susp.
same,"Obs. 20° C., 1.2 ml",[2]; EtOH,Susp.
same,Obs. 50° C.,"[2]; EtOH, 1.2 ml",Susp.
same,"Obs. 20° C., 0.4 ml",[2]; Heptane,Susp.
same,"Obs. 20° C., 0.8 ml",[2]; Heptane,Susp.
same,"Obs. 20° C., 1.2 ml",[2]; Heptane,Susp.
same,Obs. 50° C.,"[2]; Heptane, 1.2 ml",Susp.
same,"Obs. 20° C., 0.4 ml",[2]; IPA,Susp.
same,"Obs. 20° C., 0.8 ml",[2]; IPA,Susp.
same,"Obs. 20° C., 1.2 ml",[2]; IPA,Susp.
same,Obs. 50° C.,"[2]; IPA, 1.2 ml",Susp.
same,"Obs. 20° C., 0.4 ml",[2]; MEK,Susp.
same,"Obs. 20° C., 0.8 ml",[2]; MEK,Susp.
same,"Obs. 20° C., 1.2 ml",[2]; MEK,Susp.
same,Obs. 50° C.,"[2]; MEK, 1.2 ml",Susp.
same,"Obs. 20° C., 0.4 ml",[2]; MIBK,Susp.
same,"Obs. 20° C., 0.8 ml",[2]; MIBK,Susp.
same,"Obs. 20° C., 1.2 ml",[2]; MIBK,Susp.
same,Obs. 50° C.,"[2]; MIBK, 1.2 ml",Susp.
same,"Obs. 20° C., 0.4 ml",[2]; MeCN,Susp.
same,"Obs. 20° C., 0.8 ml",[2]; MeCN,Susp.
same,"Obs. 20° C., 1.2 ml",[2]; MeCN,Susp.
same,Obs. 50° C.,"[2]; MeCN, 1.2 ml",Susp.
same,"Obs. 20° C., 0.4 ml",[2]; MeOH,Susp.
same,"Obs. 20° C., 0.8 ml",[2]; MeOH,Susp.
same,"Obs. 20° C., 1.2 ml",[2]; MeOH,Susp.
same,Obs. 50° C.,"[2]; MeOH, 1.2 ml",Susp.
same,"Obs. 20° C., 0.4 ml",[2]; Nitromethane,Susp.
same,"Obs. 20° C., 0.8 ml",[2]; Nitromethane,Susp.
same,"Obs. 20° C., 1.2 ml",[2]; Nitromethane,Susp.
same,Obs. 50° C.,"[2]; Nitromethane, 1.2 ml",Susp.
same,"Obs. 20° C., 0.4 ml",[2]; TBME,Susp.
same,"Obs. 20° C., 0.8 ml",[2]; TBME,Susp.
same,"Obs. 20° C., 1.2 ml",[2]; TBME,Susp.
same,Obs. 50° C.,"[2]; TBME, 1.2 ml",Susp.
same,"Obs. 20° C., 0.4 ml",[2]; THF,Susp.
same,"Obs. 20° C., 0.8 ml",[2]; THF,Susp.
same,"Obs. 20° C., 1.2 ml",[2]; THF,Susp.
same,Obs. 50° C.,"[2]; THF, 1.2 ml",Susp.
same,"Obs. 20° C., 0.4 ml",[2]; Toluene,Susp.
same,"Obs. 20° C., 0.8 ml",[2]; Toluene,Susp.
same,"Obs. 20° C., 1.2 ml",[2]; Toluene,Susp.
same,Obs. 50° C.,"[2]; Toluene, 1.2 ml",Susp.
same,"Obs. 20° C., 0.4 ml",[2]; Water,Susp.
same,"Obs. 20° C., 0.8 ml",[2]; Water,Susp.
same,"Obs. 20° C., 1.2 ml",[2]; Water,Susp.
same,Obs. 50° C.,"[2]; Water, 1.2 ml",Solution
same,"Obs. 20° C., 0.4 ml",[2]; iPrOAc,Susp.
same,"Obs. 20° C., 0.8 ml",[2]; iPrOAc,Susp.
same,"Obs. 20° C., 1.2 ml",[2]; iPrOAc,Susp.
same,Obs. 50° C.,"[2]; iPrOAc, 1.2 ml",Susp.
